Consider one substance from patent publication US20140286906A1, “USE OF IGF-1 IN THE MODULATION OF TREG CELL ACTIVITY AND THE TREATMENT AND PREVENTION OF AUTOIMMUNE DISORDERS OR DISEASES” (priority 2011, published 2014).

Like-named read-outs stand apart in the source and are kept apart here.

For data set [1] the following is noted: mouse, in vivo.
Method: The inventors first tested the ability of rhIGF-1 to alter the balance of Treg/CD4 positive cells after five intraperitoneal daily injections (5 μg, FIG. 11).
For data set [2], the system named is T effector cell proliferation. Put plainly: in vitro suppression of T effector cell proliferation by IGF-1 treated Tregs. The class given is cell-based. Conditions: antigen presenting cells and soluble anti-CD3; Treg:Teff 1:2 to 1:64.
In data set [3] the test system is FOXP3 positive cells (CD25+ splenic cells). The data set is described as follows: Foxp3 and Ki67 flow cytometric analysis of Treg proliferation. It is filed as cell-based, murine. How it is done: (§1) To determine the effect of IGF-1 in the regulatory subset in vitro (cf. FIG. 4) the number of FOXP3 positive cells is determined by flow cytometric analysis. To analyze other subsets, like the proinflammatory Th1 and Th17 subsets, a similar approach is used but the number of interferon-gamma (Th1) and IL-17 (Th17) positive cells is determined. Additionally, to evaluate the number of proliferating cells at a given moment cells are stained using the intracellular marker Ki67, which is expressed only in cycling cells. The combination of a specific lineage marker (e.g., Foxp3, IFN-g, IL-17) with Ki67 allows for the determination at a given moment of the cells belonging to a certain subset and their proliferative status.
In animal experiments, the population is isolated normally from murine spleen (but also could be isolated from other tissues, like for example but not restricted to bone marrow, adipose tissue, cord blood derived mononuclear cell, thymus, or peripheral blood) and is sorted using different markers (e.g., CD4 and CD25). This population is defined as CD4+CD25+ and includes the regulatory cells. This population is then treated in the above-mentioned medium in the presence of IGF-1. After several days of culture part of the cells are counted, fixed, permeabilized and analyzed by flow cytometry using an anti-FOXP3 antibody in combination with the same extracellular markers (CD4 and CD25). This allows for the determination of the absolute number of FOXP3 positive cells present in the culture.
To further define the proliferative effects of IGF-1, FACS-sorted CD25+ splenic cells (>98% purity) after two days in culture with recombinant IGF-1 were fixed, permeabilized and stained with antibodies against FOXP3 and Ki67. Foxp3 is a transcription factor that orchestrates the cellular and molecular programs involved in T regulatory function. Ki67 is a nuclear antigen present in proliferating cells. […] After three days of culture the number of FOXP3 positive cells was increased four-fold and the number of regulatory T cells proliferating approximately six-fold.
(In general: A flow cytometer gives signals particle by particle.)

For data set [4] the following is noted: mouse, in vivo. This is another data set of the same source.
Data set [5] deals with experimental autoimmune encephalomyelitis (EAE). Conditions: cited from earlier work.
The subject of data set [6] is proinflamatory subsets Th1 (IFN-gamma+) and Th17 (IL-17+). Put plainly: flow cytometry of polarized Th1 and Th17 subsets. Conditions: 2 day polarization, 3 day incubation with recombinant IGF-1. The class given is cell-based. The protocol:
as §1
An important aspect regarding the immunomodulatory properties of IGF-1 is the specificity of the effect for a certain cellular subset, in this case Tregs. If IGF-1 was a general anabolic factor affecting equally all subsets, it would no affect the balance of pro-inflammatory/anti-inflammatory players. In order to test the hypothesis that IGF-1 induces immune tolerance by specifically affecting the suppressive function, CD4 positive […] cells were polarized for two days into the IFN-gamma secreting Th1 subset and the IL-17 secreting Th17 subset and then incubated with IGF-1.

In another data set the test system is CD4+CD25+ splenic cells. The data set is described as follows: flow cytometry of activation and homing markers on CD4+CD25+ splenic cells. The class given is cell-based, murine. Conditions: after IGF-1 treatment in vitro. An excerpt: The expression of certain markers on the surface of the cell is correlated with the degree of activation of the cells and also controls their trafficking and localization and consequently the compartmentalization of the immune responses. This is again measured using flow cytometric methods. For example, cells expressing high levels of CD62L preferentially migrate to secondary lymphoid tissues. However, as these cells enter the periphery (for example when they travel to affected tissues during an autoimmune process) they rapidly acquire an activated phenotype and express higher levels of CD44. Thus upregulation of CD44 is associated with a higher proliferation rate. […] The importance of this observation comes from the fact that in order to exert their suppressive properties, Tregs need to migrate to the affected tissues first. Therefore, IGF-1 not only induces activation of proliferation but also promotes their correct localization.
Finally, the inventors analyzed the ability of IGF-1 to alter the homing properties of the regulatory T cell subset. In 2003, Fisson et al. defined two distinct population of regulatory T cells in homeostatic conditions. In the steady state, some Tregs remain quiescent for long periods of time, whereas the other Treg population divides extensively and express multiple activation markers. […] This pattern of change is also consistent with a more activated phenotype. On one hand, CD44^hiCD62L^lo Treg populations, but not their CD44^loCD62L^hi counterparts, constantly incorporate BrdU, a synthetic analog of thymidine, into newly synthesized DNA in lymphoid tissues (Matsushima and Takashima, 2010). On the other hand, higher levels of CD62L have been associated with a higher capacity of Tregs to migrate to the lymph nodes, while lower levels allows them to migrate to sites of inflammation (Fisson et al., 2003; Bromley et al., 2008). Thus, T regulatory cells expressing lower levels of CD62L would have a higher inflammation-seeking capacity, which has been associated with higher suppressive potential in various inflammation models (Huehn et al., 2005). […] One, IGF-1 is able to activate a complex pathway resulting in Treg activation leading to proliferation and to selective homing and migration to the sites of inflammation. The second conclusion comes from the observation that sequential migration from blood to the target tissue and then to draining lymph nodes is required for nTreg to differentiate and execute fully their suppressive function, by inhibiting dendritic cells in the peripheral tissue and T effector cell responses in dLN and periphery (Zhang et al., 2009). Thus, IGF-1 treatment not only results in higher numbers of T regulatory cells but also in altering the trafficking of these cells to achieve a higher suppressive effect. […]

The mark [7] stands for this setting: dose response curve, 2 days stimulation.

Turning to Insulin-like growth factor-1 [IGF-1], in data set [1], the “hIGF-1 in peripheral blood” value is on record as “Elevated levels”; the “increase of IGF-1 levels determined by ELISA” value is 40 and 4. The “ability of Treg cells to suppress T effector cell proliferation after treatment” value in data set [2] was “retain their ability to suppress T effector cell proliferation”. In data set [3] (setting [7]), the “dose range at which FOXP3 positive cells respond” value is on record as “falls within physiological ranges” and the “saturability of stimulated pathway/receptor” value was “saturable”. Further, in data set [3] (three days of culture), the “increase in number of FOXP3 positive cells” value is given as “four-fold” and the “increase in number of regulatory T cells proliferating” value is given as “approximately six-fold”. In data set [3] (two days in culture), the “double positive FOXP3 Ki67 population” value is recorded as “increase” and the “number of FOXP3 positive cells” value was “increase”. In addition, in data set [4], the tumors at necropsy result is on record as “never found tumors”. Moreover, the “course of EAE” value in data set [5] (10 mg/kg per day given after disease onset (Lovett-Racke et al.)) is on record as “did not significantly alter the course of disease”. The “course of EAE” value in data set [5] (10 mg/kg per day given before disease onset (Lovett-Racke et al.)) is recorded as “mild protection”. Further, the “clinical course of EAE” value in data set [5] (administration during the acute phase (Cannella et al.)) is listed as “some transient clinical amelioration”. The “clinical course of EAE” value in data set [5] (chronic phase (Cannella et al.)) was “no effect”. In data set [6], the “cells expressing IFN-gamma (Th1)” value is recorded as “no effect” and the “cells expressing IL-17 (Th17)” value is on record as “no effect”. In the data set on CD4+CD25+ splenic cells, the CD44 surface expression result is given as “upregulated”, the CD62L surface expression result is listed as “down” and the CD71 surface expression result is on record as “upregulated”.
